The results in this text go back to ChEMBL document CHEMBL1909046, “DrugMatrix in vitro pharmacology data”.

For experiment [1], the target named is Substance-P receptor (Homo sapiens, UniProt P25103). It counts as cell membranes, CHO, Membrane. Particulars: cho. Note: in other assays of this panel Not Active means under 50% inhibition at 10 µM.
Experiment [2] addresses T1, Thromboxane-A synthase (Homo sapiens, UniProt P24557).
T1 sequence (P24557 whole entry): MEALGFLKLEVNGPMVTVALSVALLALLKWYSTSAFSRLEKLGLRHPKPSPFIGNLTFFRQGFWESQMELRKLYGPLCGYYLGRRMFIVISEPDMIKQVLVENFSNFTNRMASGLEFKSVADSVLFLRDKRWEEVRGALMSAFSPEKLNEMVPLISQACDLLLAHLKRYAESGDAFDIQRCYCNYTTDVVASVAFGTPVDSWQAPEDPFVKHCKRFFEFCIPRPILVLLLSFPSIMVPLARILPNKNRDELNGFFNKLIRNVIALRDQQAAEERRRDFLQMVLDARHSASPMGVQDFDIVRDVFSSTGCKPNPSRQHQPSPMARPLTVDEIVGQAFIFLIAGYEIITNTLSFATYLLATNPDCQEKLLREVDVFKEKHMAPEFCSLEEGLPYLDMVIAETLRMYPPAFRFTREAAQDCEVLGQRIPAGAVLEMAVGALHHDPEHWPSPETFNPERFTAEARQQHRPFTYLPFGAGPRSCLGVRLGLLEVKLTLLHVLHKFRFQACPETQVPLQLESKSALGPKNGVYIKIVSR
In words: biochemical. Particulars: platelet. It counts as tissue-based, Platelet.

Experiment [3] is described as follows: DRUGMATRIX: Leukotriene, BLT (LTB4) radioligand binding (ligand: [3H]LTB4). It counts as cell membranes, Membrane. Particulars: u-937; Not Active = under 50% inhibition at 10 µM.
Experiment [4] has as its target T2, Muscarinic acetylcholine receptor M2 (Homo sapiens, UniProt P08172). Note: in other assays of this panel Not Active means under 50% inhibition at 10 µM.
T2 sequence (P08172 whole entry): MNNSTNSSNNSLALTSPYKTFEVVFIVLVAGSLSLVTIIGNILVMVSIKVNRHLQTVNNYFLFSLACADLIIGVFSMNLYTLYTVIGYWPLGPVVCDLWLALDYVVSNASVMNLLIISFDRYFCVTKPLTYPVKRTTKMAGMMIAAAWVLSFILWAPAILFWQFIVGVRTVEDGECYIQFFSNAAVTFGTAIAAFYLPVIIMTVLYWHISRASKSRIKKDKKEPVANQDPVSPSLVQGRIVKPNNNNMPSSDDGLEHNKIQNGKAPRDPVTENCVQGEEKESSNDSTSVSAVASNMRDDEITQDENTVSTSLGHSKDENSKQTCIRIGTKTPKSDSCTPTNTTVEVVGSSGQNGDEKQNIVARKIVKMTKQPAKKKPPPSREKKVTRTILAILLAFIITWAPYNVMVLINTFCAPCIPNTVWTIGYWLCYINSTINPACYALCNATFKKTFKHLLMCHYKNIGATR
Type of experiment: cell membranes, CHO-K1, Membrane. Particulars: for IC50: cho-k1; for pIC50: read-out: IC50; for pKi: read-out: Ki.

Experiment [5] is described as follows: DRUGMATRIX: Interleukin IL-1 radioligand binding (ligand: [125I] interleukin 1beta). Type of experiment: cell membranes, Membrane. Particulars: nih3t3; Not Active = under 50% inhibition at 10 µM.
The target of experiment [6] is T3, 5-hydroxytryptamine receptor 1A (Rattus norvegicus, UniProt P19327). Note: in other assays of this panel Not Active means under 50% inhibition at 10 µM.
T3 sequence (P19327 whole entry): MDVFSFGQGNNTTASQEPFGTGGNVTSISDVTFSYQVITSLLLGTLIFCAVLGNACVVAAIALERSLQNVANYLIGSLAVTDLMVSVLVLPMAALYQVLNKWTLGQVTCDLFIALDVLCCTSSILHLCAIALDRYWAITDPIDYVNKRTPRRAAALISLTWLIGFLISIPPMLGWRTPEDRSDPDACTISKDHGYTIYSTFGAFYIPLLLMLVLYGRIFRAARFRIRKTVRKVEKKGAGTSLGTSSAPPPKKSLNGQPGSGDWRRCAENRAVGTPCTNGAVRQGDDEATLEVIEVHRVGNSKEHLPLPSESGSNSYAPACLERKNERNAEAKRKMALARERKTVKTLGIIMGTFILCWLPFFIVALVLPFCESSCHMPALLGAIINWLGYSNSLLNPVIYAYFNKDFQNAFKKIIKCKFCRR
Type of experiment: cell membranes, CHO-K1, Membrane. Particulars: for IC50: cho-k1; for pIC50: read-out: IC50; for pKi: read-out: Ki.

Experiment [7] concerns the target Protein phosphatase 3 catalytic subunit alpha (Homo sapiens, UniProt Q08209). More on the design: species or system Escherichia coli.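 Note: inhibition of calcineurin (PP2B) enzyme activity, measured with DiFMUP as the substrate; in other assays of this panel Not Active means under 50% inhibition at 10 µM.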

What is called pIC50 is −log10 of the IC50, conventionally taken in molar units. As usually defined, the pKi is the negative decadic logarithm of the Ki, by convention in mol/L.

pIC50, pKi: −log10 of the molar value.

Substance-P receptor, sequence (P25103 whole entry): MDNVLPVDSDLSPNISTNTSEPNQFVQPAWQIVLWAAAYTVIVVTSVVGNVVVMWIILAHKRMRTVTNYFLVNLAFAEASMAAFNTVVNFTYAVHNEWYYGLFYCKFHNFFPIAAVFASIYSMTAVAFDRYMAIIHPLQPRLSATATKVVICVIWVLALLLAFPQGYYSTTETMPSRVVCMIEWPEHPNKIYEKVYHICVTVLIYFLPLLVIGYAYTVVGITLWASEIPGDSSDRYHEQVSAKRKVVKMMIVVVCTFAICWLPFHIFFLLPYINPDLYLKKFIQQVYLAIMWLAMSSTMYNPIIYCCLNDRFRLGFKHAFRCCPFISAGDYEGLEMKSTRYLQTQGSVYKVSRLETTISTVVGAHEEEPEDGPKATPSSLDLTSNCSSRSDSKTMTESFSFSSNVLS

Take `O=C(O)CCNC(=O)c1ccccc1` [BETAMIPRON]: the IC50 entry in experiment [1], in experiment [2], in experiment [3], in experiment [4], in experiment [5] and in experiment [6] was “Not Active” each time. Further, in experiment [7], the IC50 entry was “Not Active”. Also, the Ki entry in experiment [3] and in experiment [5] was “Not Active” throughout.

Turning to `CC(=O)Oc1ccc(C(c2ccc(OC(C)=O)cc2)c2ccccn2)cc1` [BISACODYL], the IC50 entry in experiment [1], in experiment [2], in experiment [3], in experiment [4], in experiment [5] and in experiment [6] was “Not Active” each time. Also, the IC50 result in experiment [7] was “Not Active”. Besides, the Ki entry in experiment [3] and in experiment [5] was “Not Active” each time.

As to `Cc1cc2c(OCC(CNC(C)(C)C)OC(=O)c3ccccc3)cccc2[nH]1` (stereo not given) [BOPINDOLOL], the IC50 result in experiment [1], in experiment [2], in experiment [3], in experiment [4], in experiment [5] and in experiment [7] was “Not Active” throughout. Besides, the Ki entry in experiment [3] and in experiment [5] was “Not Active” throughout. The pIC50 in experiment [6] was 6.57. Also, in experiment [6], the pKi was 6.82.

`Brc1c(NC2=NCCN2)ccc2nccnc12` [BRIMONIDINE]: the IC50 result in experiment [1], in experiment [2], in experiment [3], in experiment [4], in experiment [5] and in experiment [7] was “Not Active” each time. Also, the Ki result in experiment [3] and in experiment [5] was “Not Active” in each case. In addition, the pIC50 in experiment [6] is 5.59. Further, the pKi in experiment [6] was 5.84.

Consider `CN(C)[C@@H]1C(O)=C(C(N)=O)C(=O)[C@@]2(O)C(O)=C3C(=O)c4c(O)ccc(Cl)c4[C@@](C)(O)[C@H]3C[C@@H]12` [CHLORTETRACYCLINE], for which the IC50 result in experiment [1], in experiment [2], in experiment [3], in experiment [4], in experiment [5] and in experiment [6] was “Not Active” in each case. In experiment [7], the IC50 entry is “Not Active”. In addition, the Ki entry in experiment [3] and in experiment [5] was “Not Active” each time.

As to `CN/C(=N\CCSCc1nc[nH]c1C)NC#N` [CIMETIDINE], the IC50 result in experiment [1], in experiment [2], in experiment [3], in experiment [4], in experiment [5] and in experiment [6] was “Not Active” throughout. Further, the IC50 entry in experiment [7] is “Not Active”. The Ki entry in experiment [3] and in experiment [5] was “Not Active” throughout.

Turning to `COc1cc(N)c(Cl)cc1C(=O)NC1CCN(CCCOc2ccc(F)cc2)CC1OC` (stereo not given) [CISAPRIDE], the IC50 result in experiment [1], in experiment [2], in experiment [3], in experiment [4], in experiment [5] and in experiment [7] was “Not Active” each time. The Ki result in experiment [3] and in experiment [5] was “Not Active” throughout. The pIC50 in experiment [6] was 5.55. Moreover, the pKi in experiment [6] is 5.79.

As for `CCC(=O)O[C@]1(C(=O)CCl)[C@@H](C)C[C@H]2[C@@H]3CCC4=CC(=O)C=C[C@]4(C)[C@@]3(F)[C@@H](O)C[C@@]21C` [CLOBETASOL PROPIONATE], the IC50 result in experiment [1], in experiment [2], in experiment [3], in experiment [4], in experiment [5] and in experiment [6] was “Not Active” each time. The IC50 entry in experiment [7] is listed as “Not Active”. The Ki entry in experiment [3] and in experiment [5] was “Not Active” throughout.

Take `O=C1CN=C(c2ccccc2Cl)c2cc([N+](=O)[O-])ccc2N1` [CLONAZEPAM]: the IC50 entry in experiment [1], in experiment [2], in experiment [3], in experiment [4], in experiment [5] and in experiment [6] was “Not Active” in each case. In addition, the IC50 entry in experiment [7] is “Not Active”. Also, the Ki result in experiment [3] and in experiment [5] was “Not Active” throughout.

As to `Nc1ccn([C@@H]2O[C@H](CO)[C@@H](O)[C@@H]2O)c(=O)n1` [CYTARABINE], the IC50 entry in experiment [1], in experiment [2], in experiment [3], in experiment [4], in experiment [5] and in experiment [6] was “Not Active” throughout. Also, the IC50 entry in experiment [7] is listed as “Not Active”. The Ki result in experiment [3] and in experiment [5] was “Not Active” throughout.

Regarding `C[C@@H]1C[C@H]2[C@@H]3CCC4=CC(=O)C=C[C@]4(C)[C@@]3(F)[C@@H](O)C[C@]2(C)[C@H]1C(=O)CO` [DESOXIMETASONE], the IC50 result in experiment [1], in experiment [2], in experiment [3], in experiment [4], in experiment [5] and in experiment [6] was “Not Active” in each case. The IC50 result in experiment [7] is on record as “Not Active”. For the same compound, the Ki result in experiment [3] and in experiment [5] was “Not Active” each time.

For `C[C@@H]1C[C@H]2[C@@H]3CCC4=CC(=O)C=C[C@]4(C)[C@@]3(F)[C@@H](O)C[C@]2(C)[C@@]1(O)C(=O)CO` [DEXAMETHASONE], the IC50 entry in experiment [1], in experiment [2], in experiment [3], in experiment [4], in experiment [5] and in experiment [6] was “Not Active” each time. The IC50 entry in experiment [7] was “Not Active”. The Ki result in experiment [3] and in experiment [5] was “Not Active” each time.

In the case of `CN(C)CC[C@@H](c1ccc(Cl)cc1)c1ccccn1` [DEXCHLORPHENIRAMINE], the IC50 result in experiment [1], in experiment [2], in experiment [3], in experiment [5], in experiment [6] and in experiment [7] was “Not Active” throughout. The Ki result in experiment [3] and in experiment [5] was “Not Active” throughout. Also, in experiment [4], the pIC50 was 5.16. The pKi in experiment [4] was 5.60.

As for `C[C@@H]1CC[C@@]2(OC1)O[C@H]1[C@@H](O)[C@H]3[C@@H]4CC[C@H]5C[C@@H](O[C@@H]6O[C@H](CO)[C@H](O[C@@H]7O[C@H](CO)C(O)[C@H](O[C@@H]8OC[C@@H](O)[C@H](O)[C@H]8O)[C@H]7O[C@@H]7O[C@H](CO)[C@H](O)[C@H](O[C@@H]8O[C@H](CO)[C@@H](O)[C@H](O)[C@H]8O)[C@H]7O)[C@H](O)[C@H]6O)[C@H](O)C[C@]5(C)[C@H]4CC[C@]3(C)[C@H]1[C@@H]2C` (stereo not given in full) [DIGITONIN], the IC50 result in experiment [1], in experiment [2], in experiment [3], in experiment [4], in experiment [5] and in experiment [6] was “Not Active” in each case. In experiment [7], the IC50 result is “Not Active”. Also, the Ki entry in experiment [3] and in experiment [5] was “Not Active” throughout.

Take `OC(CCCN1CCCCC1)(c1ccccc1)c1ccccc1` [DIPHENIDOL]: the IC50 result in experiment [1], in experiment [2], in experiment [3], in experiment [5], in experiment [6] and in experiment [7] was “Not Active” throughout. In addition, the Ki result in experiment [3] and in experiment [5] was “Not Active” in each case. In experiment [4], the pIC50 was 6.11. Also, the pKi in experiment [4] was 6.56.
